Test results reported in US20230265157A1, “MHC MULTIMER EXPRESSION CONSTRUCTS AND USES THEREOF” (priority 2020, published 2023).

System: WT-1-specific T cells
Assay: Specific cell staining / titration on WT-1-specific T cells
Type: cell-based
Settings: untreated, digested and WT-1-exchanged tetramers at 1 nM and 20 nM
Description: The amino acid sequence of the Y84A HLA alpha chain is shown in SEQ ID NO: 321. This mutation is known in the art to stabilize binding of the tethered peptide by reducing steric conflict with the peptide linker.

Y84A variant of the A*02:01 tetramer
staining of NLV- and WT-1-specific CD8+ T cells: converting NLV reactivity to WT-1 reactivity
